EC50 data for 24 compounds are collected here from patent US9296720B2, “Carboxamide-substituted heteroaryl-pyrazoles and the use thereof” (AiCuris GmbH & Co. KG, priority 2011, dated 2016).

The structures appear in SMILES notation. Where only a bound is given, the exact number is not on record here.

Type in all cases: cell-based
The test system of one test is HIV-1NL4-3 Wild Type. Description: Luminescence reduction assay, MT4 cells infected with HIV-1NL4-3 luciferase reporter virus, wild type. The following applies: Human immunodeficiency virus 1, MT4, MT4 cells, 2% FCS. The gist of the method: (§1)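 Compound dilution series in 1% DMSO, with 2% or 10% FCS, incubated 5 days at 37° C/5% CO2 with MT4 cells previously pellet-infected (2 h) by luciferase reporter NL4-3 virus, wild type or carrying RT resistance mutations. EC50 taken where luminescence from secreted luciferase falls to 50% of untreated infected control.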

For the next test, the system named is HIV-1LAI Wild Type. Description: AlamarBlue viability assay, HIV-1LAI-infected MT4 cells. The following applies: Human immunodeficiency virus 1, MT4, MT4 cells, 10% FCS. The gist of the method:
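MT4 cells infected with HIV-1LAI (MOI 0.01, supernatant infection) cultured 5 days at 37 °C with compounds in RPMI with 2% or 10% FCS, 1% DMSO final. AlamarBlue fluorescence after 3 h; EC50 as 50% protection relative to uninfected cells, CC50 from high-concentration cytotoxicity.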
On the technique in general: The colour change of resazurin is a common sign of viable cells or microbes.

In a further test the test system is HIV-1NL4-3 K103N-Y181C. Kind of test: Luminescence reduction assay, MT4 cells infected with HIV-1NL4-3 luciferase reporter virus, RT mutant K103N-Y181C. Conditions: Human immunodeficiency virus 1, MT4, read-out: EC50 (μM) MT4 Cells HIV-1NL4-3 K103N-Y181C 2% FCS, MT4 cells, HIV-1NL4-3 K103N-Y181C, 2% FCS. The procedure, abridged: as §1

Consider `O=C(c1cc(-c2cc(Br)cc(OC(F)(F)F)c2)n(-c2ccnc(C(F)(F)F)c2)n1)N1CC[S+]([O-])C1` (stereo not drawn) [Example 51, {5-[3-Bromo-5-(trifluoromethoxy)phenyl]-1-[2-(trifluoromethyl)pyridin-4-yl]-1H-pyrazol-3-yl}(1-oxido-1,3-thiazolidin-3-yl)methanone], for which the values for the EC50 in the test on HIV-1NL4-3 Wild Type, with HIV-1LAI Wild Type and in the test with HIV-1NL4-3 K103N-Y181C were 0.249 µM, 1.93 µM and 1.05 µM, respectively.
Taken in the same sequence, the figures for `O=C(c1cc(-c2cc(Br)cc(OC(F)(F)F)c2)n(-c2ccnc(C(F)(F)F)c2)n1)N1CCS(=O)(=O)C1` [Example 52, {5-[3-Bromo-5-(trifluoromethoxy)phenyl]-1-[2-(trifluoromethyl)pyridin-4-yl]-1H-pyrazol-3-yl}(1,1-dioxido-1,3-thiazolidin-3-yl)methanone] were 0.376 µM, more than 3.3 µM and 0.74 µM.
Turning to `Cc1cc(-n2nc(C(=O)N3CNC(=O)C3)cc2-c2cc(Br)cc(OC(F)(F)F)c2)ccn1` [Example 53, 1-({5-[3-Bromo-5-(trifluoromethoxy)phenyl]-1-(2-methylpyridin-4-yl)-1H-pyrazol-3-yl}carbonyl)imidazolidin-4-one], the figures for the EC50 in the test on HIV-1NL4-3 Wild Type, in the test with HIV-1LAI Wild Type and in the test with HIV-1NL4-3 K103N-Y181C were 0.023 µM, 0.302 µM and 0.008 µM, respectively.
Taken in the same sequence, the figures for `Cc1cc(-n2nc(C(=O)N3CCNC(=O)C3)cc2-c2cc(Br)cc(OC(F)(F)F)c2)ccn1` [Example 54, 4-({5-[3-Bromo-5-(trifluoromethoxy)phenyl]-1-(2-methylpyridin-4-yl)-1H-pyrazol-3-yl}carbonyl)piperazin-2-one] were 0.323 µM, 1.68 µM and 0.387 µM.
In the case of `COc1cc(-n2nc(C(=O)N3CNC(=O)C3)cc2-c2cc(Br)cc(OC(F)(F)F)c2)ccn1` [Example 55, 1-({5-[3-Bromo-5-(trifluoromethoxy)phenyl]-1-(2-methoxypyridin-4-yl)-1H-pyrazol-3-yl}carbonyl)imidazolidin-4-one], the EC50 (commonly the concentration that produces a half-maximal response) amounted to 0.003 µM in the test on HIV-1NL4-3 Wild Type, 0.104 µM in the test on HIV-1LAI Wild Type and 0.01 µM in the test on HIV-1NL4-3 K103N-Y181C.
Consider `O=C1CN(C(=O)c2cc(-c3cc(Br)cc(OC(F)F)c3)n(-c3cccnc3)n2)CN1` [Example 56, 1-({5-[3-Bromo-5-(difluoromethoxy)phenyl]-1-(pyridin-3-yl)-1H-pyrazol-3-yl}carbonyl)imidazolidin-4-one], for which the values for the half-maximal effective concentration (EC50) in the test with HIV-1NL4-3 Wild Type, with HIV-1LAI Wild Type and with HIV-1NL4-3 K103N-Y181C were 0.002 µM, 0.011 µM and 0.005 µM, respectively.
`O=C1CN(C(=O)c2cc(-c3cc(F)cc(OC(F)(F)F)c3)n(-c3cccnc3)n2)CN1` [Example 57, 1-({5-[3-Fluoro-5-(trifluoromethoxy)phenyl]-1-(pyridin-3-yl)-1H-pyrazol-3-yl}carbonyl)imidazolidin-4-one]: the results for the EC50 in the test on HIV-1NL4-3 Wild Type, with HIV-1LAI Wild Type and in the test on HIV-1NL4-3 K103N-Y181C were 0.016 µM, 0.183 µM and 0.05 µM, respectively.
In the case of `O=C(c1cc(-c2cc(F)cc(OC(F)(F)F)c2)n(-c2cccnc2)n1)N1CCSC1` [Example 59, {5-[3-Fluoro-5-(trifluoromethoxy)phenyl]-1-(pyridin-3-yl)-1H-pyrazol-3-yl}(1,3-thiazolidin-3-yl)methanone], the EC50 with HIV-1NL4-3 Wild Type amounted to 0.256 µM; with HIV-1LAI Wild Type it was 2.78 µM; with HIV-1NL4-3 K103N-Y181C, 1.11 µM.
Regarding `O=C(c1cc(-c2cc(F)cc(OC(F)(F)F)c2)n(-c2cccnc2)n1)N1CCOCC1` [Example 61, {5-[3-Fluoro-5-(trifluoromethoxy)phenyl]-1-(pyridin-3-yl)-1H-pyrazol-3-yl}(morpholin-4-yl)methanone], the EC50 in the test with HIV-1NL4-3 Wild Type was determined as 0.092 µM; with HIV-1LAI Wild Type, 0.6 µM; with HIV-1NL4-3 K103N-Y181C it was 0.767 µM.
The corresponding values for `O=C1CN(C(=O)c2cc(-c3cc(F)cc(OC(F)(F)F)c3)n(-c3ccnc(Cl)c3)n2)CN1` [Example 62, 1-({1-(2-Chloropyridin-4-yl)-5-[3-fluoro-5-(trifluoromethoxy)phenyl]-1H-pyrazol-3-yl}carbonyl)imidazolidin-4-one] are 0.044 µM, 0.352 µM and 0.066 µM.
On to `O=C1CN(C(=O)c2cc(-c3cc(F)cc(OC(F)(F)F)c3)n(-c3ccnc(Cl)c3)n2)CCN1` [Example 63, 4-({-(2-Chloropyridin-4-yl)-5-[3-fluoro-5-(trifluoromethoxy)phenyl]-1H-pyrazol-3-yl}carbonyl)piperazin-2-one], for which the figures for the EC50 in the test with HIV-1NL4-3 Wild Type, in the test with HIV-1LAI Wild Type and in the test on HIV-1NL4-3 K103N-Y181C were 0.354 µM, 2.08 µM and 0.892 µM, respectively.
The corresponding values for `O=C(c1cc(-c2cc(F)cc(OC(F)(F)F)c2)n(-c2ccnc(Cl)c2)n1)N1CC[S+]([O-])C1` (stereo not drawn) [Example 64, {1-(2-Chloropyridin-4-yl)-5-[3-fluoro-5-(trifluoromethoxy)phenyl]-1H-pyrazol-3-yl}(1-oxido-1,3-thiazolidin-3-yl)methanone] are 0.103 µM, 1.55 µM and 0.771 µM.
Regarding `O=C(c1cc(-c2cc(F)cc(OC(F)(F)F)c2)n(-c2ccnc(Cl)c2)n1)N1CCS(=O)(=O)C1` [Example 65, {1-(2-Chloropyridin-4-yl)-5-[3-fluoro-5-(trifluoromethoxy)phenyl]-1H-pyrazol-3-yl}(1,1-dioxido-1,3-thiazolidin-3-yl)methanone], the EC50 turned out to be 0.026 µM in the test with HIV-1NL4-3 Wild Type, 0.491 µM with HIV-1LAI Wild Type and 0.291 µM in the test on HIV-1NL4-3 K103N-Y181C.
Regarding `O=C1CN(C(=O)c2cc(-c3cc(F)cc(OC(F)F)c3)n(-c3cccnc3)n2)CN1` [Example 66, 1-({5-[3-(Difluoromethoxy)-5-fluorophenyl]-1-(pyridin-3-yl)-1H-pyrazol-3-yl}carbonyl)imidazolidin-4-one], the figures for the EC50 in the test on HIV-1NL4-3 Wild Type, with HIV-1LAI Wild Type and in the test with HIV-1NL4-3 K103N-Y181C were 0.013 µM, 0.083 µM and 0.058 µM, respectively.
As for `O=C1CN(C(=O)c2cc(-c3cc(F)cc(OC(F)F)c3)n(-c3cccnc3)n2)CCN1` [Example 67], the results for the EC50 in the test with HIV-1NL4-3 Wild Type, in the test on HIV-1LAI Wild Type and in the test on HIV-1NL4-3 K103N-Y181C were 0.051 µM, 0.641 µM and 0.721 µM, respectively.
The corresponding values for `O=C1CN(C(=O)c2cc(-c3cc(F)cc(OC(F)F)c3)n(-c3ccnc(Cl)c3)n2)CN1` [Example 68, 1-({1-(2-Chloropyridin-4-yl)-5-[3-(difluoromethoxy)-5-fluorophenyl]-1H-pyrazol-3-yl}carbonyl)imidazolidin-4-one] are 0.062 µM, 0.326 µM and 0.193 µM.
As for `O=C1CN(C(=O)c2cc(-c3cc(F)cc(OC(F)F)c3)n(-c3ccnc(Cl)c3)n2)CCN1` [Example 69, 4-({1-(2-Chloropyridin-4-yl)-5-[3-(difluoromethoxy)-5-fluorophenyl]-1H-pyrazol-3-yl}carbonyl)piperazin-2-one], the EC50 in the test on HIV-1NL4-3 Wild Type stood at 0.32 µM; with HIV-1LAI Wild Type, 1.98 µM; in the test on HIV-1NL4-3 K103N-Y181C, 1.14 µM.
Regarding `O=C1CN(C(=O)c2cc(-c3cc(F)cc(OCC(F)(F)F)c3)n(-c3cccnc3)n2)CN1` [Example 70, 1-({5-[3-Fluoro-5-(2,2,2-trifluoroethoxy)phenyl]-1-(pyridin-3-yl)-1H-pyrazol-3-yl}carbonyl)imidazolidin-4-one], the EC50 with HIV-1NL4-3 Wild Type was less than 0.002 µM; with HIV-1LAI Wild Type it was 0.034 µM; with HIV-1NL4-3 K103N-Y181C it was 0.315 µM.
Taken in the same sequence, the figures for `O=C1CN(C(=O)c2cc(-c3cc(F)cc(OCC(F)(F)F)c3)n(-c3cccnc3)n2)CCN1` [Example 71, 4-({5-[3-Fluoro-5-(2,2,2-trifluoroethoxy)phenyl]-1-(pyridin-3-yl)-1H-pyrazol-3-yl}carbonyl)piperazin-2-one] were 0.013 µM, 0.246 µM and more than 3.3 µM.
For `O=C(c1cc(-c2cc(F)cc(OCC(F)(F)F)c2)n(-c2cccnc2)n1)N1CCSC1` [Example 72, {5-[3-Fluoro-5-(2,2,2-trifluoroethoxy)phenyl]-1-(pyridin-3-yl)-1H-pyrazol-3-yl}(1,3-thiazolidin-3-yl)methanone], the results for the EC50 in the test on HIV-1NL4-3 Wild Type, in the test with HIV-1LAI Wild Type and with HIV-1NL4-3 K103N-Y181C were 0.038 µM, 0.585 µM and more than 3.3 µM, respectively.
On to `O=C(c1cc(-c2cc(F)cc(OCC(F)(F)F)c2)n(-c2cccnc2)n1)N1CCS(=O)(=O)C1` [Example 74, (1,1-Dioxido-1,3-thiazolidin-3-yl) {5-[3-fluoro-5-(2,2,2-trifluoroethoxy)phenyl]-1-(pyridin-3-yl)-1H-pyrazol-3-yl}methanone], for which the EC50 with HIV-1NL4-3 Wild Type amounted to 0.004 µM; in the test on HIV-1LAI Wild Type, 0.066 µM; in the test on HIV-1NL4-3 K103N-Y181C, 0.302 µM.
With `O=C(c1cc(-c2cc(F)cc(OCC(F)(F)F)c2)n(-c2ccc[n+]([O-])c2)n1)N1CCS(=O)(=O)C1` [Example 75, (1,1-Dioxido-1,3-thiazolidin-3-yl) {5-[3-fluoro-5-(2,2,2-trifluoroethoxy)phenyl]-1-(1-oxidopyridin-3-yl)-1H-pyrazol-3-yl}methanone], the EC50 in the test with HIV-1NL4-3 Wild Type is 0.272 µM; with HIV-1LAI Wild Type, more than 3.3 µM; in the test with HIV-1NL4-3 K103N-Y181C it was more than 3.3 µM.
As for `O=C1CN(C(=O)c2cc(-c3cc(Cl)cc(OC(F)(F)F)c3)n(-c3cccnc3)n2)CN1` [Example 76, 1-({5-[3-Chloro-5-(trifluoromethoxy)phenyl]-1-(pyridin-3-yl)-1H-pyrazol-3-yl}carbonyl)imidazolidin-4-one], the EC50 turned out to be 0.014 µM in the test on HIV-1NL4-3 Wild Type, 0.207 µM in the test on HIV-1LAI Wild Type and 0.019 µM with HIV-1NL4-3 K103N-Y181C.
The corresponding values for `O=C(c1cc(-c2cc(Cl)cc(OC(F)(F)F)c2)n(-c2cccnc2)n1)N1CCSC1` [Example 77, {5-[3-Chloro-5-(trifluoromethoxy)phenyl]-1-(pyridin-3-yl)-1H-pyrazol-3-yl}(1,3-thiazolidin-3-yl)methanone] are 0.067 µM, 0.861 µM and 0.364 µM.
